{
  "source": "patent US20260241049A1",
  "about": "“Radiopharmaceutical Compositions Targeting Glypican-3 and Uses Thereof” (RayzeBio, Inc., priority 2023, published 2026)",
  "molecules": {"B1": {"name": "Macrocyclic peptide of Example 2-2 (SEQ ID No. 3) (peptide)", "peptide": "{CH2CO}-[NMeK](Ac)[NMeI]D[NMeQ][Phe(4-COOH)]II[Phe(4-COOH)][NMe2Nal]G[Phe(4-(1-Me-pyrazol-4-yl))][NMeC]-NH2", "modifications": "thioether N-12", "SMILES": "CC[C@H](C)[C@@H]1NC(=O)[C@H](Cc2ccc(C(=O)O)cc2)NC(=O)[C@H](CCC(N)=O)N(C)C(=O)[C@H](CC(=O)O)NC(=O)[C@H]([C@@H](C)CC)N(C)C(=O)[C@H](CCCCNC(C)=O)N(C)C(=O)CSC[C@@H](C(N)=O)N(C)C(=O)[C@H](Cc2ccc(-c3cnn(C)c3)cc2)NC(=O)CNC(=O)[C@H](Cc2ccc3ccccc3c2)N(C)C(=O)[C@H](Cc2ccc(C(=O)O)cc2)NC(=O)[C@H]([C@@H](C)CC)NC1=O"}, "B2": {"name": "Lu-C-1 (peptide)", "peptide": "Ac-[NMeK](DOTA‑Lu)[NMeI]D[NMeQ][Phe(4-COOH)]IIY[NMeAla(isoquinolin-7-yl)]G[3Pal(6-Ph)][NMeC]-NH2", "modifications": "bridge N-12; not fully specified (bridges); printed as MeK(DOTA-Lu)-MeI-D-MeQ-F4COO-I-I-Y-MeNal27N-G-3Py6Ph-MeC-NH2"}, "B3": {"name": "Macrocyclic peptide of Example 2-1 (SEQ ID No. 2) (peptide)", "peptide": "{CH2CO}-[NMeK](Ac)[NMeI]D[NMeQ][Phe(4-COOH)]II[Phe(4-COOH)][NMe2Nal]G[3Pal(6-Ph)][NMeC]-NH2", "modifications": "thioether N-12", "SMILES": "CC[C@H](C)[C@@H]1NC(=O)[C@H](Cc2ccc(C(=O)O)cc2)NC(=O)[C@H](CCC(N)=O)N(C)C(=O)[C@H](CC(=O)O)NC(=O)[C@H]([C@@H](C)CC)N(C)C(=O)[C@H](CCCCNC(C)=O)N(C)C(=O)CSC[C@@H](C(N)=O)N(C)C(=O)[C@H](Cc2ccc(-c3ccccc3)nc2)NC(=O)CNC(=O)[C@H](Cc2ccc3ccccc3c2)N(C)C(=O)[C@H](Cc2ccc(C(=O)O)cc2)NC(=O)[C@H]([C@@H](C)CC)NC1=O"}},
  "note": "Starred links: 1 amine or outer side, 2 acyl side, 3 side chain; linkers in the order of their positions; H or OH if unused. Positions of bridges follow the written chain, without caps; N, C: chain ends. Non-standard residues stand in square brackets, D forms with d. Residues, ends and D or L forms follow the SMILES beside them. Groups on a side chain read outwards from the residue. *: point of attachment. DOTA‑Lu = DOTA-lutetium(175) amide on the side-chain amine, O=C([O-])CN1CCN(CC(=O)[O-])CCN(CC(=O)*)CCN(CC(=O)[O-])CC1.[175Lu+3]; Phe(4-(1-Me-pyrazol-4-yl)) = Cn1cc(-c2ccc(C[C@H](N)C(=O)O)cc2)cn1; NMeAla(isoquinolin-7-yl) = CN[C@@H](Cc1ccc2ccncc2c1)C(=O)O; PEG12 = NCCOCCOCCOCCOCCOCCOCCOCCOCCOCCOCCOCCOCCC(=O)O; Phe(4-CH2COOH) = N[C@@H](Cc1ccc(CC(=O)O)cc1)C(=O)O; X2 = CN([C@@H](CC1CCN(CC(=O)O)CC1)C(=O)[*:2])[*:1]; 3Pal(6-Ph) = N[C@@H](Cc1ccc(-c2ccccc2)nc1)C(=O)O; Biotin = O=C1N[C@H]2[C@H](CS[C@H]2CCCCC(=O)*)N1; Phe(4-COOH) = N[C@@H](Cc1ccc(C(=O)O)cc1)C(=O)O; Piperazinyl(4-CH2COOH) = O=C(O)CN1CCN(*)CC1; NMe2Nal = CN[C@@H](Cc1ccc2ccccc2c1)C(=O)O; X1 = CO[C@@H](O)[C@H](N[*:1])C(=O)[*:2]; AEF = NCCOc1ccc(C[C@H](N)C(=O)O)cc1; NMeI = CC[C@H](C)[C@H](NC)C(=O)O; NMeQ = CN[C@@H](CCC(N)=O)C(=O)O; NMehSer = CN[C@@H](CCO)C(=O)O; NMeK = CN[C@@H](CCCCN)C(=O)O; NMeC = CN[C@@H](CS)C(=O)O; Carboxymethyl = O=C(O)C*; NMeA = CN[C@@H](C)C(=O)O; CO = O=C([*:1])[*:2]",
  "data": [
    {"target": "Human Glypican3-Fc (Homo sapiens, UniProt P51654)", "test": "SPR binding to Glypican-3, Method B-3 (Glypican3-Fc captured on Protein A chip, 5-point dilution series)", "conditions": "SPR method B-3", "method": "A Protein A sensor chip (Cytiva) was inserted into a Biacore T200 (Cytiva), priming was performed three times with a running buffer: HBS-P+, pH 7.4 (Cytiva), and equilibration was carried out at a flow rate of 30 μL/min. Glypican3-Fc was allowed to react for 60 seconds at a flow rate of 10 μL/min. After capturing human Glypican3-Fe, a peptide solution prepared to 10 mM in DMSO solution was diluted with a running buffer to a final concentration of 10 μM. After that, 5 serial dilution series (100 nM, 50 nM, 25 nM, 10 nM, 5 nM) of peptide solutions were prepared. Using the above samples, peptide kinetics for Glypican3 was obtained by SPR measurement. Kinetics evaluation of Glypican3 was performed by SPR measurements at a flow rate of 10 LL/min, setting the association time to 120 seconds and the disassociation time to 600 seconds.\n(§1) The obtained data by Method B-1, Method B-2, Method B-3 and Method B-4 were analyzed by follow. Single Cycle Kinetics was used as the kinetics evaluation model, and curve fitting was performed using Biacore T200 Evaluation Software Version 3.0 (Cytiva).", "units": {"Kd": "pM"}, "values": [
      {"molecule": "CC[C@H](C)[C@@H]1NC(=O)[C@H]([C@@H](C)OC)NC(=O)[C@H](Cc2ccc(C(=O)O)cc2)NC(=O)[C@H](CC2CCN(CC(=O)O)CC2)N(C)C(=O)[C@H](CC(=O)O)NC(=O)[C@H](CCC(N)=O)N(C)C(=O)[C@H](CCCCN)N(C)C(=O)CSC[C@@H](C(N)=O)N(C)C(=O)[C@H](Cc2ccc(-c3cnn(C)c3)cc2)NC(=O)CNC(=O)[C@H](Cc2ccc3ccccc3c2)N(C)C(=O)[C@H](Cc2ccc(CC(=O)O)cc2)NC1=O", "note": "[Conjugate 2-51] ({CH2CO}-[NMeK][NMeQ]D[X2][Phe(4-COOH)]T(Me)I[Phe(4-CH2COOH)][NMe2Nal]G[Phe(4-(1-Me-pyrazol-4-yl))][NMeC]-NH2; thioether N-12)", "Kd": 2500},
      {"molecule": "CC[C@H](C)[C@@H]1NC(=O)[C@H]([C@@H](C)OC)NC(=O)[C@H](Cc2ccc(C(=O)O)cc2)NC(=O)[C@H](CCC(N)=O)N(C)C(=O)[C@H](CC(=O)O)NC(=O)[C@H]([C@@H](C)CC)N(C)C(=O)[C@H](CCCCN)N(C)C(=O)CSC[C@@H](C(N)=O)N(C)C(=O)[C@H](Cc2ccc(-c3ccccc3)nc2)NC(=O)CNC(=O)[C@H](Cc2ccc3ccncc3c2)N(C)C(=O)[C@H](Cc2ccc(O)cc2)NC1=O", "note": "[Conjugate 2-60] ({CH2CO}-[NMeK][NMeI]D[NMeQ][Phe(4-COOH)]T(Me)IY[NMeAla(isoquinolin-7-yl)]G[3Pal(6-Ph)][NMeC]-NH2; thioether N-12)", "Kd": 230},
      {"molecule": "CC[C@H](C)[C@@H]1NC(=O)[C@H](Cc2ccc(C(=O)O)cc2)NC(=O)[C@H](CCC(N)=O)N(C)C(=O)[C@H](CC(=O)O)NC(=O)[C@H]([C@@H](C)CC)N(C)C(=O)[C@H](CCCCNC(C)=O)N(C)C(=O)CSC[C@@H](C(N)=O)N(C)C(=O)[C@H](Cc2ccc(-c3ccccc3)nc2)NC(=O)CNC(=O)[C@H](Cc2ccc3ccncc3c2)N(C)C(=O)[C@H](Cc2ccc(O)cc2)NC(=O)[C@H]([C@@H](C)CC)NC1=O", "note": "[Conjugate 2-4] ({CH2CO}-[NMeK](Ac)[NMeI]D[NMeQ][Phe(4-COOH)]IIY[NMeAla(isoquinolin-7-yl)]G[3Pal(6-Ph)][NMeC]-NH2; thioether N-12)", "Kd": 300},
      {"molecule": "CC[C@H](C)[C@@H]1NC(=O)[C@H]([C@@H](C)OC)NC(=O)[C@H](Cc2ccc(C(=O)O)cc2)NC(=O)[C@H](CCC(N)=O)N(C)C(=O)[C@H](CC(=O)O)NC(=O)[C@H](CCOC)N(C)C(=O)[C@H](C)N(C)C(=O)CSC[C@@H](C(N)=O)N(C)C(=O)[C@H](Cc2ccc(-c3ccccc3)nc2)NC(=O)CNC(=O)[C@H](Cc2ccc3ccccc3c2)N(C)C(=O)[C@H](Cc2ccc(OCCN)cc2)NC1=O", "note": "[Conjugate 2-28] ({CH2CO}-[NMeA][NMehSer](Me)D[NMeQ][Phe(4-COOH)]T(Me)I[AEF][NMe2Nal]G[3Pal(6-Ph)][NMeC]-NH2; thioether N-12)", "Kd": 300},
      {"molecule": "CC[C@H](C)[C@@H]1NC(=O)[C@H]([C@@H](C)OC)NC(=O)[C@H](Cc2ccc(C(=O)O)cc2)NC(=O)[C@H](CCC(N)=O)N(C)C(=O)[C@H](CC(=O)O)NC(=O)[C@H](CCOC)N(C)C(=O)[C@H](CCCCN)N(C)C(=O)CSC[C@@H](C(N)=O)N(C)C(=O)[C@H](Cc2ccc(-c3ccccc3)nc2)NC(=O)CNC(=O)[C@H](Cc2ccc3ccncc3c2)N(C)C(=O)[C@H](Cc2ccc(O)cc2)NC1=O", "note": "[Conjugate 1] ({CH2CO}-[NMeK][NMehSer](Me)D[NMeQ][Phe(4-COOH)]T(Me)IY[NMeAla(isoquinolin-7-yl)]G[3Pal(6-Ph)][NMeC]-NH2; thioether N-12)", "Kd": 200},
      {"molecule": "CC[C@H](C)[C@@H]1NC(=O)[C@H](Cc2ccc(C(=O)O)cc2)NC(=O)[C@H](CCC(N)=O)N(C)C(=O)[C@H](CC(=O)O)NC(=O)[C@H]([C@@H](C)CC)N(C)C(=O)[C@H](CCCCNC(=O)CCOCCOCCOCCOCCOCCOCCOCCOCCOCCOCCOCCOCCNC(=O)CCCC[C@@H]2SC[C@@H]3NC(=O)N[C@@H]32)N(C)C(=O)CSC[C@@H](C(N)=O)N(C)C(=O)[C@H](Cc2ccc(-c3ccccc3)nc2)NC(=O)CNC(=O)[C@H](Cc2ccc3ccncc3c2)N(C)C(=O)[C@H](Cc2ccc(OCC(=O)O)cc2)NC(=O)[C@H]([C@@H](C)CC)NC1=O", "note": "[PLB-64] ({CH2CO}-[NMeK]([PEG12-Biotin])[NMeI]D[NMeQ][Phe(4-COOH)]IIY(Carboxymethyl)[NMeAla(isoquinolin-7-yl)]G[3Pal(6-Ph)][NMeC]-NH2; thioether N-12)", "Kd": 1040},
      {"molecule": "CC[C@H](C)[C@@H]1NC(=O)[C@H]([C@H](O)OC)NC(=O)[C@H](Cc2ccc(C(=O)O)cc2)NC(=O)[C@H](CCC(N)=O)N(C)C(=O)[C@H](CC(=O)O)NC(=O)[C@H](CCOC)N(C)C(=O)[C@H](CCCCNC(=O)N2CCN(CC(=O)O)CC2)N(C)C(=O)CSC[C@@H](C(N)=O)N(C)C(=O)[C@H](Cc2ccc(-c3ccccc3)nc2)NC(=O)CNC(=O)[C@H](Cc2ccc3ccncc3c2)N(C)C(=O)[C@H](Cc2ccc(O)cc2)NC1=O", "note": "[Conjugate 2-25] ({CH2CO}-[NMeK]([CO-Piperazinyl(4-CH2COOH)])[NMehSer](Me)D[NMeQ][Phe(4-COOH)][X1]IY[NMeAla(isoquinolin-7-yl)]G[3Pal(6-Ph)][NMeC]-NH2; thioether N-12)", "Kd": 6600}
    ]},
    {"target": "T1, human Glypican3 (R&D systems, catalog number: 2119-GP) (human, UniProt P51654 25-559, limits assumed)", "T1 construct": "Bought recombinant protein, amine-coupled to the chip in Method B-1; also called GPC3; hGPC3", "test": "SPR (Biacore T200), Method B-1: human Glypican3 amine-coupled to CM3 chip, peptide as analyte", "conditions": "not given", "method": "A CM3 sensor chip (Cytiva) was inserted into a Biacore T200 (Cytiva), primed three times with a running buffer: HBS-P+, pH 7.4 (Cytiva), and equilibrated at a flow rate of 30 μL/min. Ligand immobilization was performed at a flow rate of 10 μL/min. 50 μL each of 60 mM EDC solution (Cytiva) and 650 mM NHS solution (Cytiva) were mixed, and then reacted at a flow rate of 10 μL/min for 420 seconds, 150 μL of 0.2 μM human Glypican3 (R&D systems, catalog number: 2119-GP) solution which was prepared by diluting with 10 mM acetic acid solution (pH 5.0), was reacted at a flow rate of 10 μL/min for 420 seconds, and Glypican3 was immobilized on the CM3 sensor chip. After immobilization, 1.0 M ethanolamine aqueous solution (Cytiva) was allowed to react for 420 seconds at a flow rate of 10 μL/min for capping. A peptide lysate prepared to 10 mM in DMSO solution was diluted with running buffer to a final concentration of 10 μM peptide lysate. […] Using the above samples, peptide kinetics for Glypican3 was obtained by SPR measurement. Kinetics evaluation of Glypican3 was performed by SPR measurements at a flow rate of 10 μL/min, setting the association time to 120 seconds and the disassociation time to 600 seconds.\nas §1", "units": {"Kd": "pM"}, "values": [
      {"molecule": "B1", "Kd": 1500},
      {"molecule": "B2", "Kd": 290},
      {"molecule": "B3", "Kd": 500}
    ]}
  ]
}
